Measured values taken from PMC10451629, “Evaluation of the Effects of Heteroaryl Ethylene Molecules in Combination with Antibiotics: A Preliminary Study on Control Strains” (Antibiotics, 2023).
≈ marks a conversion by molar mass, not a printed value. Where “and” joins values, the source holds several entries; their conditions need not be identical. Identical values can stand only once. Like-named read-outs stand apart in the source and are kept apart here.

What was measured:
[1] = test system: all tested strains; experiment: Broth microdilution MIC, summary over all tested strains; assay type: cell-based; conditions: for MIC reduction in combination with PB4: all tested bacterial strains, antibiotic + PB4
[2] = test system: K. pneumoniae ATCC 700603; experiment: Broth microdilution MIC; assay type: cell-based, Klebsiella pneumoniae; conditions: for MIC: substance alone
[3] = test system: P. aeruginosa ATCC 27853; experiment: Broth microdilution MIC; assay type: cell-based, Pseudomonas aeruginosa; conditions: substance alone
[4] = test system: S. aureus ATCC 12598; experiment: Broth microdilution MIC; assay type: cell-based, Staphylococcus aureus; conditions: for MIC: Staphylococcus aureus, ATCC12598, S. aureus ATCC 12598, substance alone, read-out: MIC
[5] = test system: E. faecalis ATCC 29212; experiment: Broth microdilution MIC; assay type: cell-based, Enterococcus faecalis; conditions: for MIC: substance alone
[6] = test system: S. aureus ATCC 29213; experiment: Broth microdilution MIC; assay type: cell-based; conditions: Staphylococcus aureus, ATCC29213, S. aureus ATCC 29213; substance alone; read-out: MIC
[7] = test system: S. aureus ATCC BAA-1556 USA300; experiment: Broth microdilution MIC; assay type: cell-based, Staphylococcus aureus; conditions: Staphylococcus aureus, S. aureus ATCC BAA-1556 USA300; substance alone
[8] = test system: S. enterica ATCC 14028; experiment: Broth microdilution MIC; assay type: cell-based; conditions: Salmonella enterica, ATCC14028, substance alone
[9] = test system: A. baumannii ATCC 17978; experiment: Broth microdilution MIC; assay type: cell-based; conditions: Acinetobacter baumannii, ATCC17978, substance alone
[10] = test system: E. coli ATCC 25922; experiment: Broth microdilution MIC; assay type: cell-based; conditions: Escherichia coli, ATCC25922, substance alone, read-out: MIC
[11] = test system: Gram-positive strains; experiment: Broth microdilution MIC, summary over Gram-positive strains; assay type: cell-based
[12] = test system: CaCo-2 (ATCC HTB-37) colon–rectal cancer cell line; experiment: MTT cytotoxicity assay on CaCo-2 cells; assay type: cell-based, human; conditions: for IC50: Homo sapiens, CaCo-2 cell line, MTT
Method: To fully assess the biological activity of the new molecules, they were tested at different concentrations on the CaCo-2 (ATCC HTB-37) colon–rectal cancer cell line. These human cancer cells were exposed to compound solutions ranging in concentration from 100 µM to 0.01 µM. As a reference compound for these assays, we used 5-Fluorouracil (5-FU), a pyrimidine analog from the antimetabolite family.
The MTT assay was also performed for the selected antibiotics to evaluate the effect of their combined treatment with PB4.
To evaluate the effect of the heteroaryl ethylene compounds and the antibiotics, an MTT ([3-(4,5-dimethylthiazol-2-yl)-2,5-diphenyltetrazolium bromide]) assay was performed as previously described. […] Both concentrations were also tested in combination with PB4 0.2 µM. All antibiotics were provided by Thermo Scientific^TM Oxoid^TM, Basingstoke, UK. Twenty-four hours after plating, the cells were treated with 20 μL of each solution. Untreated cells were used as controls. […] The IC50 values were calculated by nonlinear regression analysis using GraphPad Prism 6.0 software.

[13] = test system: CaCo2 colon-rectal cancer cell line; parameters: method as in in-house dataset; Log(IC50) 48h: unit not given here; conditions: in-house dataset previously tested by the authors' groups, ref in-house dataset, cited from earlier work
[14] = test system: S. aureus ATCC29213; conditions: QSAR dataset; cited from earlier work
[15] = Klebsiella pneumoniae, ATCC700603, K. pneumoniae ATCC 700603, read-out: MIC
[16] = Pseudomonas aeruginosa, ATCC27853, P. aeruginosa ATCC 27853, read-out: MIC
[17] = Enterococcus faecalis, ATCC29212, E. faecalis ATCC 29212, read-out: MIC
[18] = Caco-2, 24 h, 24 h of treatment, read-out: IC50 at 24 h
[19] = Caco-2, 48 h, 48 h of treatment, read-out: IC50 at 48 h

| SMILES | MIC reduction in combination with PB4 [1] | MIC [4] | MIC [6] | MIC [7] | MIC [8] | MIC [9] | MIC [10] | MIC [2, 15] | MIC [3, 16] | MIC [5, 17] | IC50 [12, 18] | IC50 [12, 19] | further results |
| --- | --- | --- | --- | --- | --- | --- | --- | --- | --- | --- | --- | --- | --- |
| CC1(C)S[C@@H]2[C@H](NC(=O)[C@H](N)c3ccccc3)C(=O)N2[C@H]1C(=O)O [Ampicillin, ampicillin, reference compound] | no significant MIC reductions | 0.125 µg/mL (≈ 0.358 µM) | 2 µg/mL (≈ 5.72 µM) | 8 µg/mL (≈ 22.9 µM) | 2 µg/mL (≈ 5.72 µM) | 32 µg/mL (≈ 91.6 µM) | 8 µg/mL (≈ 22.9 µM) | – | – | – | – | – | MIC of antibiotic in combination with PB4 ([2]; K. pneumoniae ATCC 700603, sub-MIC PB4): 2 µg/mL; MIC ([2]; K. pneumoniae ATCC 700603): 8 mg/L (≈ 22.9 µM); MIC ([2]; K. pneumoniae ATCC 700603, listed as AMP): >128 mg/L; MIC ([3]; P. aeruginosa ATCC 27853): 2 mg/L (≈ 5.72 µM); MIC ([3]; P. aeruginosa ATCC 27853, listed as AMP): >128 mg/L; MIC of antibiotic in combination with PB4 ([5]; E. faecalis ATCC 29212, PB4 at fixed 0.125 μg/mL (0.24 μM), a quarter of an MIC value): 1 µg/mL; MIC ([5]; E. faecalis ATCC 29212): 4 mg/L (≈ 11.4 µM); MIC ([5]; E. faecalis ATCC 29212, listed as AMP): 0.25 mg/L (≈ 0.715 µM) |
| COc1ccc(/C=C/c2cccc(/C=C/c3ccc(OC)cc3)[n+]2C)cc1 [BCM6] | – | 4 µg/mL and 8.23 µM | 4 µg/mL and 8.2 µM | 8 µg/mL and 16.4 µM | > 128 µg/mL and > 264 µM | 64 µg/mL and 132 µM | 128 µg/mL and 264 µM | > 128 µg/mL and > 264 µM | > 128 µg/mL and > 264 µM | 32 µg/mL and 65.9 µM | 160 nM | 180 nM | MIC [11]: 4 to 8 µg/mL; IC50 ([13]; 48h): 12300 nM; Log(IC50) 48h [13]: 1.09 |
| CC[C@H]1OC(=O)[C@H](C)[C@@H](O[C@H]2C[C@@](C)(OC)[C@@H](O)[C@H](C)O2)[C@H](C)[C@@H](O[C@@H]2O[C@H](C)C[C@H](N(C)C)[C@H]2O)[C@](C)(O)C[C@@H](C)C(=O)[C@H](C)[C@@H](O)[C@]1(C)O [Erythromycin, erythromycin] | no significant MIC reductions | 0.5 µg/mL (≈ 0.681 µM) | 0.5 µg/mL (≈ 0.681 µM) | 32 µg/mL (≈ 43.6 µM) | – | – | – | – | – | 2 mg/L (≈ 2.73 µM) | – | – | Percentage of cell growth, antibiotic ([12]; CaCo-2, antibiotic alone at MIC for E. faecalis ATCC 29212, 24 h): 148.2%; Percentage of cell growth, antibiotic ([12]; CaCo-2, antibiotic alone at MIC for E. faecalis ATCC 29212, 48 h): 269.0%; Percentage of cell growth, antibiotic ([12]; CaCo-2, antibiotic alone at sub-MIC (half-MIC), 24 h): 159.5%; Percentage of cell growth, antibiotic ([12]; CaCo-2, antibiotic alone at sub-MIC (half-MIC), 48 h): 280.6%; Percentage of cell growth, antibiotic + PB4 0.2 µM ([12]; CaCo-2, antibiotic at MIC + PB4 0.2 µM, 24 h): 133.6%; Percentage of cell growth, antibiotic + PB4 0.2 µM ([12]; CaCo-2, antibiotic at MIC + PB4 0.2 µM, 48 h): 117.5%; Percentage of cell growth, antibiotic + PB4 0.2 µM ([12]; CaCo-2, antibiotic at sub-MIC + PB4 0.2 µM, 24 h): 124.9%; Percentage of cell growth, antibiotic + PB4 0.2 µM ([12]; CaCo-2, antibiotic at sub-MIC + PB4 0.2 µM, 48 h): 155.8% |
| C[n+]1c(/C=C/c2ccc(N(c3ccccc3)c3ccccc3)cc2)cccc1/C=C/c1ccc(N(c2ccccc2)c2ccccc2)cc1 [GC-VI-10] | – | 64 µg/mL and 84.4 µM | 128 µg/mL and 169 µM | 128 µg/mL and 169 µM | > 128 µg/mL and > 169 µM | > 128 µg/mL and > 169 µM | > 128 µg/mL and > 169 µM | > 128 µg/mL and > 169 µM | > 128 µg/mL and > 169 µM | 4 µg/mL and 5.2 µM | 1350 nM | 990 nM | MIC levels over all tested strains ([1]; summary in text over all tested strains): high MIC levels |
| CN(C)c1ccc(/C=C/C=C/c2ccc3ccccc3[n+]2C)cc1 [GC-VII-50] | – | 0.25 µg/mL and 0.5 µM | 0.5 µg/mL and 1.1 µM | 2 µg/mL and 4.6 µM | > 128 µg/mL and > 297 µM | 16 µg/mL and 37.2 µM | 64 µg/mL and 149 µM | > 128 µg/mL and > 297 µM | > 128 µg/mL and > 297 µM | 8 µg/mL and 18.5 µM | 170 nM | 70 nM | MIC [11]: 0.25 to 8 µg/mL |
| C[C@@H](O)[C@H]1C(=O)N2C(C(=O)O)=C(SCCN=CN)C[C@H]12 [IMI, imipenem, reference compound] | no significant MIC reductions | – | – | – | 0.06 µg/mL (≈ 0.2 µM) | 0.06 µg/mL (≈ 0.2 µM) | 0.06 µg/mL (≈ 0.2 µM) | 0.03 mg/L (≈ 0.1 µM) | 0.25 mg/L (≈ 0.835 µM) | – | – | – | – |
| CC(=O)NC[C@H]1CN(c2ccc(N3CCOCC3)c(F)c2)C(=O)O1 [Linezolid, linezolid, reference compound] | no significant MIC reductions | 4 µg/mL (≈ 11.9 µM) | 4 µg/mL (≈ 11.9 µM) | 2 µg/mL (≈ 5.93 µM) | – | – | – | – | – | 4 mg/L (≈ 11.9 µM) | – | – | – |
| CN(C)c1ccc(/C=C/c2cccc(/C=C/c3ccc(N(C)C)cc3)[n+]2C)cc1 [PB4] | – | 0.25 µg/mL and 0.49 µM | 0.125 µg/mL and 0.24 µM | ≤ 0.125 µg/mL and ≤ 0.24 µM | 64 µg/mL and 125 µM | ≤ 0.125 µg/mL and ≤ 0.24 µM | 2 µg/mL and 3.91 µM | 64 µg/mL and 125 µM | > 128 µg/mL and > 250 µM | 0.5 µg/mL and 0.98 µM | 310 nM | 300 nM | MIC [14]: 0.25 µg/mL; Reduction of PB4 MIC in combination with GC-VI-70 ([4]; S. aureus ATCC 12598): 2 logs; MIC of PB4 + GC-VI-70 combination ([4]; S. aureus ATCC 12598, PB4 fixed at its MIC for the strain, GC-VI-70 128 to 0.125 mg/L): 0.06 µg/mL; Reduction of PB4 MIC in combination with GC-VI-70 ([5]; E. faecalis ATCC 29212): 2 logs; MIC of PB4 + GC-VI-70 combination ([5]; E. faecalis ATCC 29212, PB4 fixed at its MIC for the strain, GC-VI-70 128 to 0.125 mg/L): 0.06 µg/mL; Percentage of cell growth, PB4 0.2 µM ([12]; CaCo-2, PB4 alone 0.2 µM, 48 h): 72.7% |
